Results published in patent publication US20140179681A1, “METHODS AND COMPOSITIONS OF TARGETED DRUG DEVELOPMENT” (priority 2010, published 2014).
Where two headings read alike, the source gives them in different places.

Experiments:
EGFR = target: T1, EGFR (Homo sapiens, UniProt P00533); test: EGFR in-cell Western (ICW) screening protocol (EGFR inhibition assay); assay type: cell-based; details: for ICW Screen: Table 11; for ICW Screen / ICW assay: % Inhibition of EGF dependent EGFR phosphorylation in A431 cells, compound 125 μM in assay; for ICW assay: Table 10
T1 construct: host or cells: A431
T1 sequence (P00533 25-1210): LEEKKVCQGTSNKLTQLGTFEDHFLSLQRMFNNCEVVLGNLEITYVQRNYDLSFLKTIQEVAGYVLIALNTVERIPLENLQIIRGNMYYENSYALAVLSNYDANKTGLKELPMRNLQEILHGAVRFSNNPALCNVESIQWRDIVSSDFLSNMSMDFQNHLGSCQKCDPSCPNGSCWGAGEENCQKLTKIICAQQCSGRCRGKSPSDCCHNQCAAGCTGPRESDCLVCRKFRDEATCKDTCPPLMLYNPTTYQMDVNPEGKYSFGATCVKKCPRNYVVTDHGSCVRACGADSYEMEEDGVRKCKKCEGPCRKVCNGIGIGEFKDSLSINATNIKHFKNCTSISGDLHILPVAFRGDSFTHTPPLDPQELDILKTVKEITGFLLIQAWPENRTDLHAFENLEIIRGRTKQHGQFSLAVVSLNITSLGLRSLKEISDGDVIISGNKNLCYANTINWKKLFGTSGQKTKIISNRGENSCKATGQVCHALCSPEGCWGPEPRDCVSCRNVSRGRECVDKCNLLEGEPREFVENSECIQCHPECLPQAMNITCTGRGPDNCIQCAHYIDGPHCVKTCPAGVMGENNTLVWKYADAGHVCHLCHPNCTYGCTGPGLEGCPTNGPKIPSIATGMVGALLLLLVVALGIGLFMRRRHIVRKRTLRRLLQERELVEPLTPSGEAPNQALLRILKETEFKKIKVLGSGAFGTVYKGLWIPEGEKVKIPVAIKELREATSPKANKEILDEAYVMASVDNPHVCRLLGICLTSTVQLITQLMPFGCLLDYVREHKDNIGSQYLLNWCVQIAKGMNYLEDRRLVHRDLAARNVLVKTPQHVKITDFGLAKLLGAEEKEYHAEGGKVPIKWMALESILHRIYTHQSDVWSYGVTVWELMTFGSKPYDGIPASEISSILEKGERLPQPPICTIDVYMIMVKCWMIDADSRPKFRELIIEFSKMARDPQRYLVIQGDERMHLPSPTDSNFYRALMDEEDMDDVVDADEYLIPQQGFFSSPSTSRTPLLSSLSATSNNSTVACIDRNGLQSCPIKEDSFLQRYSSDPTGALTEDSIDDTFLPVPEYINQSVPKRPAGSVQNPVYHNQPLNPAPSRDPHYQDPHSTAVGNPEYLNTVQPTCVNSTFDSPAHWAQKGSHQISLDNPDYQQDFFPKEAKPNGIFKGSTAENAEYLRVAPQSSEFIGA
Summary of the method: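 In-cell Western read-out: fixed A431 cells were co-stained for total EGFR and phospho-EGFR (Tyr1173; some runs Tyr1045). Before fixation, cells were serum-starved for 2 h, exposed to compound for 4 h, then given EGF for 10 min, usually at 10 ng/ml final (6.6 or 12.5 ng/ml in some runs).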

[1] = tested on: epithelial carcinoma A431 cell line; test: MTT Cell Proliferation Assay, A431 cells; assay type: cell-based
Summary of the method: (§1)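 Each concentration ran in quadruplicate across duplicate plates, with compounds serially diluted in DMSO and delivered at 0.5% DMSO in 0.5% FBS medium for 3 days.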

MDBK line = test: MTT Cell Proliferation Assay, MDBK cells; assay type: cell-based, bovine
Summary of the method: as §1

[2] = Homo sapiens, A-431, 72 h, Table 11, first of x/y(ratio): A431, unit not printed (doses in μM), read-out: MTT Screen (first value)
[3] = Bos taurus, MDBK, Table 11, second of x/y(ratio): MDBK, unit not printed (doses in μM), read-out: MTT Screen (second value)
[4] = Homo sapiens, A-431, Table 11, first of x/y(ratio): A431, unit inferred, read-out: MTT Follow-up (first value)
[5] = Homo sapiens, A-431, Table 11, first of x/y(ratio): A431, unit not printed (doses in μM), read-out: MTT Screen (first value)
[6] = Bos taurus, MDBK, Table 11, second of x/y(ratio): MDBK, unit inferred, read-out: MTT Follow-up (second value)
[7] = Table 11, second of x/y(ratio): MDBK, unit not printed (doses in μM)
[8] = first value of 'a/b (c)', taken as A431 cells, read-out: MTT Screen, first value of cell
[9] = second value of 'a/b (c)', taken as MDBK cells, read-out: MTT Screen, second value of cell
[10] = Table 11, first of x/y(ratio): A431, unit not printed (doses in μM), read-out: MTT Screen (first value)
[11] = Table 11, second of x/y(ratio): MDBK, unit not printed (doses in μM), read-out: MTT Screen (second value)
[12] = Homo sapiens, A-431, first value of 'a/b (c)', taken as A431 cells, read-out: MTT Screen, first value of cell
[13] = Bos taurus, MDBK, second value of 'a/b (c)', taken as MDBK cells, read-out: MTT Screen, second value of cell
[14] = Homo sapiens, A-431, 72 h, Table 10, first of x/y(ratio): A431, three day treatment, unit not printed (doses in μM), read-out: MTT assay (first value)
[15] = Bos taurus, MDBK, 72 h, Table 10, second of x/y(ratio): MDBK, three day treatment, unit not printed (doses in μM), read-out: MTT assay (second value)

| SMILES | ICW Screen (EGFR) | ICW Screen (ICW Inhibition) (EGFR) | IC50 [1, 12] | IC50 (MDBK line; [13]) | further results |
| --- | --- | --- | --- | --- | --- |
| Cc1ccc2c(CN3CCN(Cc4ccc5c(c4)OCO5)CC3)cc(=O)oc2c1C [AD4-10181] | 34.604 |  |  |  | IC50 [1, 2]: 2.61 µM; IC50 (MDBK line; [3]): 16 µM |
| Cc1cc(C)c2c(CN3CCN(Cc4ccc5c(c4)OCO5)CC3)cc(=O)oc2c1 [AD4-10182] | 39.51 |  |  |  | IC50 [1, 2]: 6.78 µM; IC50 [1, 4]: 3.75 µM; IC50 (MDBK line; [3]): 43.3 µM; MTT Follow-up (second value) (MDBK line; Table 11, second of x/y(ratio): MDBK, unit not given): non- convergent |
| CCc1cc2c(CN3CCN(Cc4ccccc4)CC3)cc(=O)oc2cc1O [AD4-10186] | 47.518 |  |  |  | IC50 [1, 5]: 40.1 µM; IC50 (MDBK line; [3]): 45.7 µM |
| CC(C)c1ccc2oc(=O)cc(CN3CCN(C/C=C/c4ccccc4)CC3)c2c1 [AD4-10188] | 53.35 |  |  |  | IC50 [1, 5]: 9.05 µM; IC50 (MDBK line; [3]): 16.3 µM |
| CC(C)c1ccc2oc(=O)cc(CN3CCN(Cc4ccc5c(c4)OCO5)CC3)c2c1 [AD4-10192] | 16.772 |  |  |  | IC50 [1, 2]: 16.5 µM; IC50 (MDBK line; [3]): 43.3 µM |
| COc1ccc(N2CCN(Cc3cc(=O)oc4cc5c(cc34)OCO5)CC2)cc1 [AD4-10209] | −10.6 |  |  |  | IC50 [1, 4]: 2.5 µM; IC50 (MDBK line; [6]): 50.1 µM |
| COc1ccc(N2CCN(Cc3cc(=O)oc4c(C)c(O)ccc34)CC2)cc1 [AD4-10217] | −1.007 |  |  |  | IC50 [1, 2]: 14 µM; MTT Screen (second value) (MDBK line; [7]): non-convergent |
| CC(C)(C)C(=O)NC(=S)Nc1ccc(S(=O)(=O)NCCc2ccccc2)cc1 [AD4-10313] |  | 30.774 |  |  | IC50 [1, 8]: 20.9 µM; IC50 (MDBK line; [9]): 17.6 µM |
| Cc1c(O)ccc2c(CN3CCN(Cc4ccc5c(c4)OCO5)CC3)cc(=O)oc12 [AD4-10491] | 29.223 |  |  |  | IC50 [1, 10]: 22.2 µM; IC50 (MDBK line; [11]): 40.6 µM |
| CC(C)CC(=O)NC(=S)Nc1ccc(S(=O)(=O)NCCc2ccccc2)cc1 [AD4-10608] |  | 62.846 | 6.33 µM | 5.35 µM |  |
| O=C(NC(=S)Nc1ccc(S(=O)(=O)NCCc2ccccc2)cc1)C1CCCC1 [AD4-10609] |  | 43.828 | 6.84 µM | 6.34 µM |  |
| CC(C)C(=O)NC(=S)Nc1ccc(S(=O)(=O)NCCc2ccccc2)cc1 [AD4-10611] |  | 38.285 | 30.9 µM | 20 µM |  |
| CCCC(=O)NC(=S)Nc1ccc(S(=O)(=O)NCCc2ccccc2)cc1 [AD4-10612] |  | 30.841 | 11.7 µM | 13.2 µM |  |
| CC(C)(C)C(=O)NC(=S)Nc1ccc(S(=O)(=O)NCCc2ccccc2)cc1 [AD4-10613] |  | 35.514 | 13.9 µM | 11.8 µM |  |
| O=c1cc(CN2CCN(Cc3ccc4c(c3)OCO4)CC2)c2cc(Cl)c(O)cc2o1 [AD4-10618] | −3.062 |  |  |  | IC50 [1, 2]: 18.4 µM; MTT Screen (second value) (MDBK line; [7]): non-convergent |
| CCc1cc2c(CN3CCN(C(c4ccccc4)c4ccccc4)CC3)cc(=O)oc2cc1O [AD4-10619] | −44.55 |  |  |  | IC50 [1, 4]: 2.97 µM; MTT Screen, % @ […] ([1]; Table 11, @ […], cell line not stated): 87% @ 2.6 μM; IC50 (MDBK line; [6]): 3.06 µM |
| CC(=O)NC(=S)Nc1ccc(S(=O)(=O)N2CCc3ccccc32)cc1 [AD4-10623] |  | 46.185 | 25.8 µM | 38.3 µM |  |
| O=C(CCc1ccco1)NC(=S)Nc1ccc(S(=O)(=O)NCCc2ccccc2)cc1 [AD4-10624] |  | 49.448 | 25.6 µM | 16.8 µM |  |
| CC(C)CC(=O)NC(=S)Nc1ccc(S(=O)(=O)N2CCc3ccccc32)cc1 [AD4-10626] |  | 50.05 | 5.31 µM | 19.6 µM |  |
| CCc1cc2c(CN3CCN(Cc4ccccc4)CC3)cc(=O)oc2cc1O [AD4-10631] | 104.48 |  |  |  | IC50 [1, 10]: 35.6 µM; IC50 (MDBK line; [11]): 37.5 µM |
| O=c1cc(CN2CCN(C(c3ccccc3)c3ccccc3)CC2)c2ccc(O)c(O)c2o1 [AD4-10633] | 46.398 |  |  |  | IC50 [1, 5]: 5.2 µM; MTT Follow-up (first value) ([1]; Table 11, first of x/y(ratio): A431, unit not given): Not Convergent; MTT Screen (second value) (MDBK line; [7]): non- convergent |
| Cc1c(O)ccc2c(CN3CCN(Cc4ccc5c(c4)OCO5)CC3)cc(=O)oc12 [AD4-10637] | 30.057 |  |  |  | IC50 [1, 5]: 20.8 µM; IC50 (MDBK line; [3]): 41.3 µM |

| SMILES | ICW Screen (EGFR) | ICW Screen (ICW Inhibition) (EGFR) | IC50 [1, 12] | IC50 (MDBK line; [13]) | further results |
| --- | --- | --- | --- | --- | --- |
| O=c1cc(CN2CCN(Cc3ccccc3)CC2)c2cc3c(cc2o1)OCO3 [AD4-10639] | 43.695 |  |  |  | IC50 [1, 2]: 42.6 µM; MTT Screen (second value) (MDBK line; [7]): non-convergent |
| Cc1ccc(NS(=O)(=O)c2ccc(NC(=S)NC(=O)C3CCC3)cc2)cc1C [AD4-10676] |  | 59.637 |  | 8.84 µM | IC50 [1, 8]: 18.6 µM |
| CC(=O)c1cccc(NC(=S)Nc2ccc(NS(=O)(=O)c3ccc(C)cc3)cc2)c1 [AD4-10693] |  |  |  |  | ICW assay (EGFR): 26.8206; IC50 [1, 14]: 48.2 µM; IC50 (MDBK line; [15]): 35.9 µM |
| CC(=O)c1ccc(NC(=S)Nc2ccc(S(=O)(=O)Nc3ccccc3C)cc2)cc1 [AD4-10700] |  |  |  |  | ICW assay (EGFR): 52.5996; IC50 [1, 14]: 14.7 µM; IC50 (MDBK line; [15]): 14.3 µM |
| O=C(NC(=S)Nc1ccc(S(=O)(=O)Nc2ccccc2)cc1)c1ccco1 [AD4-10705] |  | 47.764 | 23.1 µM | 25.2 µM |  |
| Cc1ccccc1C(=O)NC(=S)Nc1ccc(S(=O)(=O)Nc2ccccc2)cc1 [AD4-10706] |  | 55.497 | 15.1 µM | 23.1 µM |  |
| Cc1ccc(NS(=O)(=O)c2ccc(NC(=S)NC(=O)C3CCCCC3)cc2)cc1C [AD4-10708] |  | 37.233 | 16.6 µM | 35.9 µM |  |
| CCOc1ccc(NS(=O)(=O)c2ccc(NC(=S)Nc3ccccc3)cc2)cc1 [AD4-11344] |  |  |  |  | ICW assay (EGFR): 34.1727; IC50 [1, 14]: 15.1 µM; IC50 (MDBK line; [15]): 15.3 µM |
| CCc1nnc(NS(=O)(=O)c2ccc(NC(=S)NC(=O)/C=C/c3ccccc3)cc2)s1 [AD4-11367] |  | 46.872 | 43.3 µM | 43.6 µM |  |
| COc1cc(NS(=O)(=O)c2ccc(NC(=S)NC(=O)/C=C/c3ccccc3)cc2)nc(OC)n1 [AD4-11369] |  | 43.546 | 48.6 µM |  | IC50 (MDBK line; [9]): 47.2 µM |
| COc1ccc(OCC(=O)NC(=S)Nc2ccc(S(=O)(=O)Nc3cc(C)cc(C)c3)cc2)cc1 [AD4-11396] |  | 30.745 |  |  | IC50 [1, 8]: 25.1 µM; IC50 (MDBK line; [9]): 21.2 µM |
| Cc1cc(Cl)ccc1OCC(=O)NC(=S)Nc1ccc(S(=O)(=O)N2CCCCC2)cc1 [AD4-11402] |  | 33.635 | 11.8 µM | 17.4 µM |  |
| CCOc1ccc(NS(=O)(=O)c2ccc(NC(=S)NC(=O)CC)cc2)cc1 [AD4-11409] |  | 74.94 | 17.2 µM | 11.7 µM |  |
| CCN(c1ccccc1)S(=O)(=O)c1ccc(NC(=S)NC(=O)Cc2ccccc2)cc1 [AD4-11412] |  | 31.958 | 11.4 µM | 20 µM |  |
| O=C(NC(=S)Nc1ccc(S(=O)(=O)Nc2ccccc2)cc1)C1CC1 [AD4-11413] |  | 46.23 |  |  | IC50 [1, 8]: 31.4 µM; IC50 (MDBK line; [9]): 29.8 µM |
| COc1ccc(CC(=O)NC(=S)Nc2ccc(S(=O)(=O)NCCc3ccccc3)cc2)cc1 [AD4-11415] |  | 35.841 | 15.7 µM | 10.5 µM |  |
| O=C(Cc1ccccc1)NC(=S)Nc1ccc(S(=O)(=O)Nc2ccccc2)cc1 [AD4-11416] |  | 53.517 |  |  | IC50 [1, 8]: 15.4 µM; IC50 (MDBK line; [9]): 13.5 µM |
| Cc1ccc(NS(=O)(=O)c2ccc(NC(=S)NC(=O)C3CCCCC3)cc2)cc1C [AD4-11417] |  | 40.711 |  |  | IC50 [1, 8]: 25.5 µM; IC50 (MDBK line; [9]): 49.3 µM |
| COc1ccc(CC(=O)NC(=S)Nc2ccc(S(=O)(=O)Nc3ccc(C)c(C)c3)cc2)cc1 [AD4-11418] |  | 34.067 | 11.9 µM | 10.2 µM |  |
| Cc1ccc(NS(=O)(=O)c2ccc(NC(=S)NC(=O)CCc3ccccc3)cc2)cc1C [AD4-11419] |  | 40.289 | 31.3 µM | 38.8 µM |  |
| O=C(NC(=S)Nc1ccc(S(=O)(=O)N2CCCCC2)cc1)C1CCC1 [AD4-11421] |  | 37.181 | 41.5 µM | 43.5 µM |  |
| Cc1ccc(NS(=O)(=O)c2ccc(NC(=S)NC(=O)C3CCC3)cc2)cc1C [AD4-11422] |  | 44.982 |  |  | IC50 [1, 8]: 29.5 µM; IC50 (MDBK line; [9]): 9.23 µM |
